# Experimental data published in paper PMC6264117, “Label-Free Time-Gated Luminescent Detection Method for the Nucleotides with Varying Phosphate Content” (Sensors (Basel, Switzerland), 2018).
# Biological target: T1, K-Ras (Homo sapiens, UniProt P01116)
# T1 construct: gene KRAS; res; 2-188; with SOS^cat (res. 564-1049); p120GAP (res. 714-1047) in the cycling assay
# Experiment: Label-free Tb(III) luminescence GTPase cycling assay (Probe […]); confirmed by QRET and by SOS^cat nucleotide exchange assays (IC50 […])
# Assay type: biochemical
# T1 sequence (Q07889 564-1049): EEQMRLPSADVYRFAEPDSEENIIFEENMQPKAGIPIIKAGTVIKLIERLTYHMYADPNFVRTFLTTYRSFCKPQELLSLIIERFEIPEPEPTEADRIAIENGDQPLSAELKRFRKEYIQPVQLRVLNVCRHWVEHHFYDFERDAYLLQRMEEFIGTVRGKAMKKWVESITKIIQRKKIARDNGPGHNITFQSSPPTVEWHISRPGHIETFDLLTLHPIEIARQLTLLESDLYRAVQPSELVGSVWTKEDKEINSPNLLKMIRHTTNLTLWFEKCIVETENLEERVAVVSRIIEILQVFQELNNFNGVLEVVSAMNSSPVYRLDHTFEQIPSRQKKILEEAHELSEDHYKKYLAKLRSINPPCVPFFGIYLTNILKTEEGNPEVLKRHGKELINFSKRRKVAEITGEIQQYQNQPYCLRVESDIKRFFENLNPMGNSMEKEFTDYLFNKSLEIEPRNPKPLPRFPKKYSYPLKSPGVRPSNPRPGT
# T1 sequence (P20936 714-1047, further chain): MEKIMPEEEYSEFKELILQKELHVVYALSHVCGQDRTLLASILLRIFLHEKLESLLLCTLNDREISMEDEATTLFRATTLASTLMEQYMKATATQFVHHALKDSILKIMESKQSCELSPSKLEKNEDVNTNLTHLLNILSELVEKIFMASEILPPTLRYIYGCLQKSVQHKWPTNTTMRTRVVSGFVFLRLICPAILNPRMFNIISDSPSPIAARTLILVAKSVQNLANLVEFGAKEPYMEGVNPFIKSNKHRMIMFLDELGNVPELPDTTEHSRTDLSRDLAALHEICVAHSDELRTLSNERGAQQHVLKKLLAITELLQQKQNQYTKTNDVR
# T1 sequence (P01116 2-188): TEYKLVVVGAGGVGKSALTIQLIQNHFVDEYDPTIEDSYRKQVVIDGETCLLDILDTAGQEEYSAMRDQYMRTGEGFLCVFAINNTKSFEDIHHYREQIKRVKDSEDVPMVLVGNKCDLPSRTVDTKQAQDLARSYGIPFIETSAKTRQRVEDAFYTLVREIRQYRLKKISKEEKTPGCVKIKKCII
compound,measurement,value
"Cc1[nH]c2cc(Cl)cc(Cl)c2c1CCN [DCAI, 2-(4,6-dichloro-2-methyl-1h-indol-3-yl)ethanamine]",IC50,158 ± 13 µM
